ChEMBL document CHEMBL1275440, “In vitro activity of telavancin against resistant gram-positive bacteria” (2008)
Converted amounts (≈) assume the structure as drawn. The source made the active and inactive calls. No cut-off for these calls is given here.

Experiments:
Assay type in all cases: functional
[1] = test system: Streptococcus constellatus; assay: Antibacterial activity against Streptococcus constellatus clinical isolate by broth microdilution method
[2] = test system: Streptococcus mitis; assay: Antibacterial activity against Streptococcus mitis clinical isolate by broth microdilution method
[3] = test system: Streptococcus pyogenes; assay: Antibacterial activity against Streptococcus pyogenes group A clinical isolate by broth microdilution method
[4] = test system: Streptococcus agalactiae; assay: Antibacterial activity against Streptococcus agalactiae group B clinical isolate by broth microdilution method
[5] = test system: Streptococcus viridans; assay: Antibacterial activity against Streptococcus viridans clinical isolate assessed as susceptibility level by broth microdilution method
[6] = test system: Streptococcus viridans; assay: Antibacterial activity against Streptococcus viridans clinical isolate by broth microdilution method
[7] = test system: Streptococcus intermedius; assay: Antibacterial activity against Streptococcus intermedius clinical isolate by broth microdilution method
[8] = test system: Streptococcus intermedius; assay: Antibacterial activity against Streptococcus intermedius clinical isolate assessed as susceptibility level by broth microdilution method
[9] = test system: Streptococcus pneumoniae; assay: Antibacterial activity against multidrug-resistant Streptococcus pneumoniae clinical isolate assessed as susceptibility level by broth microdilution method
[10] = test system: Streptococcus pneumoniae; assay: Antibacterial activity against penicillin resistant Streptococcus pneumoniae clinical isolate assessed as susceptibility level by broth microdilution method
[11] = test system: Streptococcus pneumoniae; assay: Antibacterial activity against penicillin intermediate Streptococcus pneumoniae clinical isolate assessed as susceptibility level by broth microdilution method
[12] = test system: Streptococcus pyogenes; assay: Antibacterial activity against Streptococcus pyogenes group A clinical isolate assessed as susceptibility level by broth microdilution method
[13] = test system: Streptococcus pneumoniae; assay: Antibacterial activity against multidrug-resistant Streptococcus pneumoniae clinical isolate by broth microdilution method
[14] = test system: Streptococcus oralis; assay: Antibacterial activity against Streptococcus oralis clinical isolate by broth microdilution method
[15] = test system: Streptococcus constellatus; assay: Antibacterial activity against Streptococcus constellatus clinical isolate assessed as susceptibility level by broth microdilution method
[16] = test system: Streptococcus pneumoniae; assay: Antibacterial activity against penicillin resistant Streptococcus pneumoniae clinical isolate by broth microdilution method
[17] = test system: Streptococcus pneumoniae; assay: Antibacterial activity against penicillin intermediate Streptococcus pneumoniae clinical isolate by broth microdilution method
[18] = test system: Streptococcus oralis; assay: Antibacterial activity against Streptococcus oralis clinical isolate assessed as susceptibility level by broth microdilution method
[19] = test system: Streptococcus mitis; assay: Antibacterial activity against Streptococcus mitis clinical isolate assessed as susceptibility level by broth microdilution method
[20] = test system: Streptococcus agalactiae; assay: Antibacterial activity against Streptococcus agalactiae group B clinical isolate assessed as susceptibility level by broth microdilution method

Question: Which results are given for CCC[C@@H]1C[C@@H](C(=O)N[C@@H]([C@H]2O[C@H](SC)[C@H](O)[C@@H](O)[C@H]2O)[C@H](C)Cl)N(C)C1 [CLINDAMYCIN]?
Answer: MIC [1]: ≤ 0.03 mg/L; MIC50 [1]: inactive; MIC90 [1]: inactive; MIC [2]: ≤ 0.03 mg/L; MIC50 [2]: inactive; MIC90 [2]: inactive; MIC [3]: ≤ 0.03 mg/L; MIC50 [3]: ≤ 0.03 mg/L; MIC90 [3]: 0.06 mg/L (≈ 0.141 µM); MIC50 [4]: 0.06 mg/L (≈ 0.141 µM); MIC90 [4]: > 0.25 mg/L; Activity [5]: 88%; MIC [6]: ≤ 0.03 mg/L; MIC50 [6]: inactive; MIC90 [6]: inactive; MIC [7]: ≤ 0.03 mg/L; MIC50 [7]: inactive; MIC90 [7]: inactive; Activity [8]: 88%; Activity [9]: 73%; Activity [10]: 76%; Activity [11]: 83%; Activity [12]: 98%; MIC50 [13]: 0.06 mg/L (≈ 0.141 µM); MIC90 [13]: > 0.25 mg/L; MIC [14]: ≤ 0.03 mg/L; MIC50 [14]: inactive; MIC90 [14]: inactive; Activity [15]: 88%; MIC50 [16]: 0.06 mg/L (≈ 0.141 µM); MIC90 [16]: > 0.25 mg/L; MIC [17]: 0.06 mg/L (≈ 0.141 µM); MIC50 [17]: 0.06 mg/L (≈ 0.141 µM); MIC90 [17]: 0.5 mg/L (≈ 1.18 µM); Activity [18]: 88%; Activity [19]: 88%; Activity [20]: 86%

Question: With C[C@H]1COc2c(N3CCN(C)CC3)c(F)cc3c(=O)c(C(=O)O)cn1c23.C[C@H]1COc2c(N3CCN(C)CC3)c(F)cc3c(=O)c(C(=O)O)cn1c23.O [LEVOFLOXACIN] as the compound, how does the MIC [1] read?
Answer: ≤ 0.12 mg/L

Question: And the MIC50 [1]?
Answer: inactive

Question: What about the MIC90 [1] of the same compound?
Answer: inactive

Question: What about the MIC [2] of the same compound?
Answer: ≤ 0.12 mg/L

Question: And the MIC50 [2]?
Answer: inactive

Question: And the MIC90 [2]?
Answer: inactive

Question: And the MIC50 [3]?
Answer: 0.5 mg/L

Question: And the MIC90 [3]?
Answer: 1 mg/L

Question: And the MIC50 [4]?
Answer: 0.5 mg/L

Question: What about the MIC90 [4] of the same compound?
Answer: 1 mg/L

Question: What about the Activity [5] of the same compound?
Answer: 100%

Question: And the MIC [6]?
Answer: ≤ 0.12 mg/L

Question: And the MIC50 [6]?
Answer: inactive

Question: What about the MIC90 [6] of the same compound?
Answer: inactive

Question: What about the MIC [7] of the same compound?
Answer: ≤ 0.12 mg/L

Question: What about the MIC50 [7] of the same compound?
Answer: inactive

Question: And the MIC90 [7]?
Answer: inactive

Question: And the Activity [8]?
Answer: 100%

Question: And the Activity [9]?
Answer: 95%

Question: And the Activity [10]?
Answer: 97%

Question: And the Activity [11]?
Answer: 92%

Question: What about the Activity [12] of the same compound?
Answer: 98%

Question: And the MIC50 [13]?
Answer: 0.5 mg/L

Question: And the MIC90 [13]?
Answer: 1 mg/L

Question: What about the MIC [14] of the same compound?
Answer: ≤ 0.12 mg/L

Question: And the MIC50 [14]?
Answer: inactive

Question: And the MIC90 [14]?
Answer: inactive

Question: What about the Activity [15] of the same compound?
Answer: 100%

Question: What about the MIC50 [16] of the same compound?
Answer: 0.5 mg/L

Question: What about the MIC90 [16] of the same compound?
Answer: 1 mg/L

Question: What about the MIC50 [17] of the same compound?
Answer: 0.5 mg/L

Question: What about the MIC90 [17] of the same compound?
Answer: 1 mg/L

Question: And the Activity [18]?
Answer: 100%

Question: What about the Activity [19] of the same compound?
Answer: 100%

Question: What about the Activity [20] of the same compound?
Answer: 99%

Question: Which results are given for CO/N=C(\C(=O)N[C@@H]1C(=O)N2C(C(=O)O)=C(CSc3nc(=O)c(O)nn3C)CS[C@H]12)c1csc(N)n1 [CEFTRIAXONE]?
Answer: MIC [1]: 0.03 mg/L (≈ 0.0541 µM); MIC50 [1]: inactive; MIC90 [1]: inactive; MIC [2]: 0.03 mg/L (≈ 0.0541 µM); MIC50 [2]: inactive; MIC90 [2]: inactive; MIC [3]: ≤ 0.015 mg/L; MIC50 [3]: ≤ 0.015 mg/L; MIC90 [3]: 0.12 mg/L (≈ 0.216 µM); MIC50 [4]: 0.06 mg/L (≈ 0.108 µM); MIC90 [4]: 0.06 mg/L (≈ 0.108 µM); Activity [5]: 75%; MIC [6]: 0.03 mg/L (≈ 0.0541 µM); MIC50 [6]: inactive; MIC90 [6]: inactive; MIC [7]: 0.03 mg/L (≈ 0.0541 µM); MIC50 [7]: inactive; MIC90 [7]: inactive; Activity [8]: 75%; Activity [9]: 77%; Activity [10]: 73%; Activity [11]: 92%; Activity [12]: 92%; MIC50 [13]: 1 mg/L (≈ 1.8 µM); MIC90 [13]: 2 mg/L (≈ 3.61 µM); MIC [14]: 0.03 mg/L (≈ 0.0541 µM); MIC50 [14]: inactive; MIC90 [14]: inactive; Activity [15]: 75%; MIC50 [16]: 1 mg/L (≈ 1.8 µM); MIC90 [16]: 2 mg/L (≈ 3.61 µM); MIC50 [17]: 0.5 mg/L (≈ 0.902 µM); MIC90 [17]: 1 mg/L (≈ 1.8 µM); Activity [18]: 75%; Activity [19]: 75%; Activity [20]: 96%

Question: Which MIC [1] does the source give for CN(C)[C@@H]1C(O)=C(C(N)=O)C(=O)[C@@]2(O)C(O)=C3C(=O)c4c(O)cccc4[C@@](C)(O)[C@H]3C[C@@H]12 [TETRACYCLINE] here?
Answer: 0.12 mg/L (≈ 0.27 µM)

Question: And the MIC50 [1]?
Answer: inactive

Question: What about the MIC90 [1] of the same compound?
Answer: inactive

Question: What about the MIC [2] of the same compound?
Answer: 0.12 mg/L (≈ 0.27 µM)

Question: What about the MIC50 [2] of the same compound?
Answer: inactive

Question: And the MIC90 [2]?
Answer: inactive

Question: What about the MIC50 [3] of the same compound?
Answer: 0.12 mg/L (≈ 0.27 µM)

Question: What about the MIC90 [3] of the same compound?
Answer: 4 mg/L (≈ 9 µM)

Question: And the MIC50 [4]?
Answer: > 8 mg/L

Question: What about the MIC90 [4] of the same compound?
Answer: > 8 mg/L

Question: What about the Activity [5] of the same compound?
Answer: 75%

Question: What about the MIC [6] of the same compound?
Answer: 0.12 mg/L (≈ 0.27 µM)

Question: What about the MIC50 [6] of the same compound?
Answer: inactive

Question: And the MIC90 [6]?
Answer: inactive

Question: And the MIC [7]?
Answer: 0.12 mg/L (≈ 0.27 µM)

Question: What about the MIC50 [7] of the same compound?
Answer: inactive

Question: And the MIC90 [7]?
Answer: inactive

Question: And the Activity [8]?
Answer: 75%

Question: What about the Activity [9] of the same compound?
Answer: 37%

Question: And the Activity [10]?
Answer: 41%

Question: What about the Activity [11] of the same compound?
Answer: 67%

Question: What about the Activity [12] of the same compound?
Answer: 89%

Question: What about the MIC50 [13] of the same compound?
Answer: > 8 mg/L

Question: And the MIC [14]?
Answer: 0.12 mg/L (≈ 0.27 µM)

Question: And the MIC50 [14]?
Answer: inactive

Question: What about the MIC90 [14] of the same compound?
Answer: inactive

Question: And the Activity [15]?
Answer: 75%

Question: And the MIC50 [16]?
Answer: > 8 mg/L

Question: And the MIC50 [17]?
Answer: 0.12 mg/L (≈ 0.27 µM)

Question: What about the MIC90 [17] of the same compound?
Answer: > 8 mg/L

Question: And the Activity [18]?
Answer: 75%

Question: What about the Activity [19] of the same compound?
Answer: 75%

Question: And the Activity [20]?
Answer: 16%
